In patent publication US20100215653A1, “METHODS OF TREATING NEOPLASTIC, AUTOIMMUNE AND INFLAMMATORY DISEASES” (Seattle Genetics, Inc., priority 2006, published 2010):

Tests used:
[1] = biological target: CD33 on human cells (AML cell lines HL60, KG-1, HEL9217, TF1-alpha, U937; primary human monocytes and macrophages) (human) (UniProt P20138); test: apparent Kd, saturation binding by flow cytometry on HL60 cells
[2] = biological target: CD33 on human cells (AML cell lines HL60, KG-1, HEL9217, TF1-alpha, U937; primary human monocytes and macrophages) (human) (UniProt P20138); test: apparent Kd, saturation binding by flow cytometry on KG-1 cells
[3] = biological target: CD33 on human cells (AML cell lines HL60, KG-1, HEL9217, TF1-alpha, U937; primary human monocytes and macrophages) (human) (UniProt P20138); test: apparent Kd, saturation binding by flow cytometry on HEL9217 cells
[4] = biological target: CD33 on human cells (AML cell lines HL60, KG-1, HEL9217, TF1-alpha, U937; primary human monocytes and macrophages) (human) (UniProt P20138); test: apparent Kd, saturation binding by flow cytometry on TF1-alpha cells
[5] = tested on: HL-60 cells; test: HL-60 disseminated AML model in mice; assay type: in vivo; conditions: low doses of cytarabine alone (FIG. 22)
Method: Mice were implanted with an AML cell line, HL-60, as follows: 5 million HL-60 cells were injected intravenously. The mice were treated with lintuzumab (10 mg/kg, q4dx4, ip), cytarabine (1 mg/kg, 5 mg/kg or 25 mg/kg, q1dx10, ip; or 50 mg/kg or 100 mg/kg, q2dx5, ip) or lintuzumab with cytarabine (dosed as described previously). Treatment began on day one. Referring to FIG. 22, the control mice or mice treated with placebo (0.9% saline) were removed from the study by day 80, due to tumor progression.
To confirm the data of the in vitro study, mice were implanted with an AML cell line, HL-60, as follows: 5 million HL-60 cells were injected intravenously. […] Treatment began on day one. Referring to FIG. 24, the control mice were removed from the study by about day 60 due to tumor progression. Mice treated with lenalidomide were removed from study by about day 90 for similar reasons.
The MDR-negative HL60 cell line and the MDR-positive HEL9217 and TF1-α cell lines were used. […] Disease symptoms typically developed between about 35 and about 80 days, and included hind limb paralysis, scruffy coat, weight loss, palpable tumors, and/or tumor masses in bone, peritoneal cavity, or soft tissues. Human CD33+ tumor cells were detected in the blood, bone marrow, and lymph nodes of the majority of the mice by flow cytometry (FIG. 25). Solid tumors associated with bone or soft tissues were found in 20 to 60% of the mice.

[6] = tested on: HEL 92.1.7 cells; test: Complement-dependent cytotoxicity (CDC) activity; assay type: cell-based, human; conditions: HEL 92.1.7 cells preincubated 2 hours with drug before HuM195
Method: The purpose of this study was to determine whether the cytotoxic effects of an anti-CD33 antibody (HuM195) on AML cells could be enhanced by combination treatment with chemotherapeutic drugs. An MDR^+, CD33-positive AML cell line (HEL 92.1.7) was either untreated or preincubated with the indicated concentrations of thalidomide or 5-azacytidine for two hours prior to exposure to the anti-CD33 Ab. Cytotoxic activity was measured using a complement-dependent cytotoxicity (CDC) activity.

[7] = tested on: primary human macrophages; test: Macrophage migration in response to chemoattractants (CytoSelect Cell Migration Assay); assay type: cell-based; conditions: 10% human serum or 20% conditioned media from RPMI 8226 cells; p<0.05 (FIG. 21)
Method: The migration of macrophages in response to challenge with plating media containing 10% human serum, 20% conditioned tumor cell media, or 50 ng/ml TGF-β, VEGF, TNF-α, or IFN-γ was evaluated using the CytoSelect Cell Migration Assay (Cell Biolabs, San Diego, Calif.). […] The study was stopped 18 hours later and migration was evaluated after dissociation of the cells from the membrane followed by detection with Cyquant GR dye.
The migration of macrophages in response to challenge with plating media containing 10% human serum or 20% conditioned tumor cell media was evaluated using the CytoSelect Cell Migration Assay (Cell Biolabs, San Diego, Calif.). […] The studies were stopped 18 h later and migration was evaluated after dissociation of the cells from the membrane followed by detection with Cyquant GR dye.

[8] = Effector function (ADCC or CDC activity), data not shown; assay type: cell-based
[9] = biological target: T1, CD33 (Homo sapiens, UniProt P20138); test: CD33 tyrosine phosphorylation (CD33 immunoprecipitation, anti-phosphotyrosine Western blot); assay type: cell-based; set-up: endogenous in cells; host or cells: HL-60, U937; primary human CD14+ monocytes and PBMC-derived macrophages; conditions: HL-60 AML cells (FIG. 16)
T1 sequence (P20138 18-364): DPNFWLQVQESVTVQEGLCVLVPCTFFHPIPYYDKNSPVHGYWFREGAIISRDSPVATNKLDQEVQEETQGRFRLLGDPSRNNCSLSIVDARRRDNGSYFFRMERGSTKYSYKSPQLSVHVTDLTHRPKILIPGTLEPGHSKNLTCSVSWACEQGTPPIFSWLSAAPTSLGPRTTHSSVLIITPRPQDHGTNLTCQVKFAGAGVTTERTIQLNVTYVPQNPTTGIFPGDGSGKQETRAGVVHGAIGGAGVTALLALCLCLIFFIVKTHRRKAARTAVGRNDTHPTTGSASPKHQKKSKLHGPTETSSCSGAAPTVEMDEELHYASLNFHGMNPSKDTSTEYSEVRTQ
Method: CD33-positive cell lines were treated with anti-CD33 antibodies (lintuzumab and certain commercially available antibodies). Cell extracts were prepared and CD33 was immunoprecipitated using an anti-CD33 antibody (MY9 clone; Beckman Coulter, Calif.). Western blotting was performed with an anti-phosphotyrosine antibody (4G10; Upstate Biotechnologies, Inc., Lake Placid, N.Y.).
(§1) Deglycosylation was confirmed by CE-SDS. […] Cell lysates were prepared and CD33 immunoprecipitated using an anti-CD33 rabbit polyclonal antibody (Santa Cruz Biotechnology, Santa Cruz, Calif.) prior to SDS PAGE gel electrophoresis. Western blot analyses of these samples were performed using the 4G10 phosphotyrosine antibody (Upstate Biotechnology, Temucula, Calif.), anti-CD33 antibody (NovoCastra, Norwell, Mass.), and anti-SHP-1 antibody (Calbiochem, San Diego, Calif.). Control lysate for SHP-1 was prepared from a B cell lymphoma cell line.

[10] = biological target: T1, CD33; test: Recruitment of SHP-1 / SHP-2 / Syk to CD33 (CD33 immunoprecipitation, Western blot); assay type: cell-based; set-up: endogenous in cells; host or cells: HL-60, U937; primary human CD14+ monocytes and PBMC-derived macrophages; conditions: HL-60 and monocytes; 30 minutes (FIG. 16)
Method: To determine whether the humanized M195 antibody also recruits SHP phosphatases, HL-60 cells were treated with soluble or cross-linked anti-CD33 antibodies. Cell extracts were prepared and CD33 was immunoprecipitated with an anti-CD33 antibody (MY9 clone). Western blotting was performed with an anti-SHP-1 antibody (sc-287; Santa Cruz Biotechnology, Inc., Santa Cruz, Calif.).
as §1, with “To prepare deglycosylated SGN-33, the antibody was treated with PN-glycosidase F (New England BioLabs, Ipswich, Mass.). Deglycosylation” for “Deglycosylation”

[11] = tested on: AML tumor cells (KG-1 HEL9217, and TF1α); test: ADCC, 51Cr release assay with NK effector cells; assay type: cell-based, human; conditions: NK cells pre-treated 2 to 3 h with drug before addition to target cells (FIG. 23)
Method: Target AML tumor cells (KG-1 HEL9217, and TF1α) were labeled with Na^51CrO4 and mixed with enriched CD16^+ effector (NK) cells, prepared using PBMCs from normal donors. The effector to target cell ratio was 10:1. […] Macrophages were labeled with CD11b−FITC or CD14-FITC antibody. Flow cytometric analyses of dual labeled (PKH67+CD11b+ or PKH67+CD14+) cells was used to determine specific uptake (phagocytosis). […] Media were collected 18 h later and analyzed by ELISA for IL-8 or MCP-1.
Viable NK cells were pre-treated for 2 to 3 h with lenalidomide or thalidomide (as described in FIG. 23) prior to addition to target cells.

CD33 on human cells (AML cell lines HL60, KG-1, HEL9217, TF1-alpha, U937; primary human monocytes and macrophages) (human), sequence (P20138 18-364): as above

SGN-33, humanized M195 anti-CD33 antibody
Kd [1]: 123 pM | Kd [2]: 70 pM | Kd [3]: 144 pM | Kd [4]: 99 pM

Nc1ccn([C@@H]2O[C@H](CO)[C@@H](O)[C@@H]2O)c(=O)n1 [cytarabine, reference compound]
percent survival rates compared to untreated controls [5]: increasing percent survival rates

Nc1ncn([C@@H]2O[C@H](CO)[C@@H](O)[C@H]2O)c(=O)n1 [5-azacytidine]
sensitivity to HuM195-mediated CDC activity after preincubation with drug [6]: enhanced the sensitivity

deglycosylated SGN-33: SGN-33 treated with PN-glycosidase F; does not interact with Fc receptors
macrophage migration [7]: significantly reduced the migration | effector function, including ADCC or CDC activity [8]: did not mediate effector function | phosphorylation of CD33 [9]: induced phosphorylation of CD33 | recruitment of SHP-1 to the CD33 complex [10]: resulted in recruitment of SHP-1 to the CD33 complex

O=C1CCC(N2C(=O)c3ccccc3C2=O)C(=O)N1 (stereo not shown) [thalidomide, reference compound]
sensitivity to HuM195-mediated CDC activity after preincubation with drug [6]: enhanced the sensitivity | effect on SGN-33 mediated ADCC [11]: enhanced SGN-33 mediated ADCC

Nc1cccc2c1CN(C1CCC(=O)NC1=O)C2=O (stereo not shown) [lenalidomide, reference compound]
effect on SGN-33 mediated ADCC [11]: enhanced SGN-33 mediated ADCC
